Results taken from patent US7632933B2, “Corticotropin releasing factor 2 receptor agonists” (priority 2002, dated 2009).
pEC50: −log10 of the molar value. Where two headings read alike, the source gives them in different places. Peptide text beside a SMILES is read from it.

Assays:
CRF1R = target: T1, CRF1R (Homo sapiens, UniProt P34998); experiment: CRF1R agonist activity (EC50 and Emax), called comparative CRF binding; format: cell-based; conditions: CRF1R; for pEC50: read-out: CRF1R EC50
T1 sequence (P34998 24-415): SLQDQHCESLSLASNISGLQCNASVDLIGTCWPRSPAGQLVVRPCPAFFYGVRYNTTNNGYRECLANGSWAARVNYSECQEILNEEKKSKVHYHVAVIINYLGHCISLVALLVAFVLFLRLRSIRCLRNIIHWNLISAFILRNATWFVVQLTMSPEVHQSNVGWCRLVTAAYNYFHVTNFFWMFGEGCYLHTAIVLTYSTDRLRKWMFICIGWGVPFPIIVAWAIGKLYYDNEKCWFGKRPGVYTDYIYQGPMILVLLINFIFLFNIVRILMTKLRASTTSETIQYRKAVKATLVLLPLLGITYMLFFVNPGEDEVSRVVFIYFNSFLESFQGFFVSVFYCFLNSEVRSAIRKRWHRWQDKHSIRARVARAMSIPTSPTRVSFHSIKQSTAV
Source text: (§1) The pharmacological activity and selectivity of the peptides of present invention can be determined using published test procedures. See, e.g, U.S. patent application Ser. No. 09/799,978. Because CRF2R and CRF1R are homologous proteins, it is expected that a certain proportion of agonists for CRF2R will also function as agonists of CRF1R. As discussed above, activation of CRF1R induces activation of the HPA axis since increased corticosteroid production leads to skeletal muscle atrophy. In most cases in which an increase in muscle mass or function is desired, it is not desirable to activate the HPA axis.
(§2) Because it is desirable to discriminate binding between CRF2R, as compared with CRF1R, the assays described above may be conducted using a cell, or membrane from a cell, which expresses only CRF2R or the assays can be conducted with a recombinant source of CRF2R. Cells expressing both forms of CRFR may be modified using homologous recombination to inactivate or otherwise disable the CRF1R gene. Alternatively, if the source of CRFR contains more than one CRFR type, the background signal produced by the receptor which is not of interest must be subtracted from the signal obtained in the assay. […] Known antagonists of CRFRs include, but are not limited to, antalarmin (CRF1R selective), antisauvagine-30 (CRF2R selective) and astressin (nonselective for CRF1R/CRF2R).
(§3) Cell-based assays include the steps of contacting cells which express CRF1R or CRF2R with a peptide of the present invention or control and measuring activation of the CRFR by measuring the expression or activity of components of the CRFR signal transduction pathways.
(§4) For example, after contact with a peptide of the present invention, lysates of the cells can be prepared and assayed for induction of cAMP. cAMP is induced in response to Gαs activation. Because Gαs is activated by receptors other than CRFR and because a test peptide may be exerting its effect through CRFRs or by another mechanism, two control comparisons are relevant for determining whether the peptide increases levels of cAMP via activation of a CRFR. One control compares the cAMP level of cells contacted with the peptide and the cAMP level of cells contacted with a control compound (i.e., the vehicle in which the peptide is dissolved).
(§5) In one example, cAMP induction is measured with the use of DNA constructs containing the cAMP responsive element linked to any of a variety of reporter genes can be introduced into cells expressing CRFRs. Such reporter genes include, but are not limited to, chloramphenicol acetyltransferase (CAT), luciferase, glucuronide synthetase, growth hormone, fluorescent proteins (e.g., Green Fluorescent Protein), or alkaline phosphatase. Following exposure of the cells to the peptide, the level of reporter gene expression can be quantitated to determine the peptide's ability to increase cAMP levels and thus determine the peptide's ability to activate the CRFR.
(§6) In addition to using cells expressing full length CRFRs, cells can be engineered which express CRFRs containing the ligand binding domain of the receptor coupled to, or physically modified to contain, reporter elements or to interact with signaling proteins. For example, a wild type CRFR or CRFR fragment can be fused to a G-protein resulting in activation of the fused G-protein upon agonist binding to the CRFR portion of the fusion protein. […] In addition, alternative pathways for induction of the CRE reporter could be eliminated to reduce basal levels.

CRF2R = target: T2, CRF2R (Homo sapiens, UniProt Q13324); experiment: CRF2R agonist activity (EC50 and Emax), called comparative CRF binding; format: cell-based; conditions: CRF2R; for pEC50: read-out: CRF2R EC50
T2 sequence (Q13324 1-411): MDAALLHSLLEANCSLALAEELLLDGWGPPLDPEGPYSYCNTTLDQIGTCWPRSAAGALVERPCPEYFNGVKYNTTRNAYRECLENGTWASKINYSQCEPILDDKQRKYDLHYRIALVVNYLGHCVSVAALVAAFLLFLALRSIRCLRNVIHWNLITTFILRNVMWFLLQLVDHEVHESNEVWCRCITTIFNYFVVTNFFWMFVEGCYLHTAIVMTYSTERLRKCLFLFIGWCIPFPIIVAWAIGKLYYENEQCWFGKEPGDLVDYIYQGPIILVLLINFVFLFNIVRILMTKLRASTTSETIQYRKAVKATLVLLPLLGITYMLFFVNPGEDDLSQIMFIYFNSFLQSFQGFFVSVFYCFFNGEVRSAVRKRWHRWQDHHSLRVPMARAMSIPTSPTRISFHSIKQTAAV
Source text: as §1, §2, §3, §4, §5, §6

| SMILES | pEC50 (CRF1R) | pEC50 (CRF2R) | EC50 (CRF1R; CRF1R EC50 (nM)) | EC50 (CRF2R; CRF2R EC50 (nM)) |
| --- | --- | --- | --- | --- |
| CC[C@H](C)[C@H](N)C(=O)N[C@H](C(=O)N[C@@H](CC(C)C)C(=O)N[C@@H](CO)C(=O)N[C@@H](CC(C)C)C(=O)N[C@@H](CC(=O)O)C(=O)N[C@H](C(=O)N1CCC[C@H]1C(=O)N[C@H](C(=O)NCC(=O)N[C@@H](CC(C)C)C(=O)N[C@@H](CC(C)C)C(=O)N[C@@H](CCC(N)=O)C(=O)N[C@H](C(=O)N[C@@H](CC(C)C)C(=O)N[C@@H](CC(C)C)C(=O)N[C@@H](CCC(=O)O)C(=O)N[C@@H](CCC(N)=O)C(=O)N[C@@H](C)C(=O)N[C@@H](CCCNC(=N)N)C(=O)N[C@@H](C)C(=O)N[C@@H](C)C(=O)N[C@@H](C)C(=O)N[C@@H](CCCNC(=N)N)C(=O)N[C@@H](CCC(=O)O)C(=O)N[C@@H](CCC(N)=O)C(=O)N[C@@H](C)C(=O)N[C@H](C(=O)N[C@H](C(=O)N[C@@H](CC(N)=O)C(=O)N[C@@H](C)C(=O)N[C@@H](CCCNC(=N)N)C(=O)N[C@H](C(=O)N[C@@H](CC(C)C)C(=O)N[C@@H](C)C(=O)N[C@@H](CCCNC(=N)N)C(=O)N[C@H](C(N)=O)C(C)C)[C@@H](C)CC)[C@@H](C)O)[C@@H](C)O)[C@@H](C)CC)[C@@H](C)CC)C(C)C)C(C)C [compound 141] (H-IVLSLDVPIGLLQILLEQARAAAREQATTNARILARV-NH2) | < 7.00 | < 7.00 |  |  |
| CC[C@H](C)[C@H](N)C(=O)N[C@H](C(=O)N[C@@H](CC(C)C)C(=O)N[C@@H](CO)C(=O)N[C@@H](CC(C)C)C(=O)N[C@@H](CC(=O)O)C(=O)N[C@H](C(=O)N1CCC[C@H]1C(=O)N[C@H](C(=O)NCC(=O)N[C@@H](CC(C)C)C(=O)N[C@@H](CC(C)C)C(=O)N[C@@H](CCC(N)=O)C(=O)N[C@H](C(=O)N[C@@H](CC(C)C)C(=O)N[C@@H](CC(C)C)C(=O)N[C@@H](CCC(=O)O)C(=O)N[C@H](C(=O)N[C@@H](CCC(=O)O)C(=O)N[C@@H](CCCCN)C(=O)N[C@@H](CCC(N)=O)C(=O)N[C@@H](CCC(=O)O)C(=O)N[C@@H](CCCCN)C(=O)N[C@@H](CCC(=O)O)C(=O)N[C@@H](CCCCN)C(=O)N[C@@H](CCC(N)=O)C(=O)N[C@@H](CCC(N)=O)C(=O)N[C@@H](C)C(=O)N[C@@H](C)C(=O)N[C@@H](CC(N)=O)C(=O)N[C@@H](CC(N)=O)C(=O)N[C@@H](CCCNC(=N)N)C(=O)N[C@@H](CC(C)C)C(=O)N[C@@H](CC(C)C)C(=O)N[C@@H](CC(C)C)C(=O)N[C@@H](CC(=O)O)C(=O)N[C@H](C(=O)N[C@H](C(N)=O)[C@@H](C)CC)[C@@H](C)O)[C@@H](C)CC)[C@@H](C)CC)[C@@H](C)CC)C(C)C)C(C)C [compound 158] (H-IVLSLDVPIGLLQILLEIEKQEKEKQQAANNRLLLDTI-NH2) |  |  | > 100 nM | 6.37 nM |
| CC[C@H](C)[C@H](N)C(=O)N[C@H](C(=O)N[C@@H](CC(C)C)C(=O)N[C@@H](CO)C(=O)N[C@@H](CC(C)C)C(=O)N[C@@H](CC(=O)O)C(=O)N[C@H](C(=O)N1CCC[C@H]1C(=O)N[C@H](C(=O)NCC(=O)N[C@@H](CC(C)C)C(=O)N[C@@H](CC(C)C)C(=O)N[C@@H](CCC(N)=O)C(=O)N[C@@H](CCC(=O)O)C(=O)N[C@H](C(=O)N[C@@H](CC(C)C)C(=O)N[C@@H](CCC(=O)O)C(=O)N[C@@H](CCSC)C(=O)N[C@@H](C)C(=O)N[C@@H](CCCNC(=N)N)C(=O)N[C@@H](C)C(=O)N[C@@H](CCC(=O)O)C(=O)N[C@@H](CCC(N)=O)C(=O)N[C@@H](CC(C)C)C(=O)N[C@@H](C)C(=O)N[C@@H](CCC(N)=O)C(=O)N[C@@H](CCC(N)=O)C(=O)N[C@@H](C)C(=O)N[C@@H](Cc1c[nH]cn1)C(=O)N[C@@H](CO)C(=O)N[C@@H](CC(N)=O)C(=O)N[C@@H](CCCNC(=N)N)C(=O)N[C@@H](CCCCN)C(=O)N[C@@H](CC(C)C)C(=O)N[C@@H](CCSC)C(=O)N[C@@H](CCC(=O)O)C(=O)N[C@H](C(=O)N[C@H](C(N)=O)[C@@H](C)CC)[C@@H](C)CC)C(C)C)[C@@H](C)CC)C(C)C)C(C)C [compound 165] (H-IVLSLDVPIGLLQEVLEMARAEQLAQQAHSNRKLMEII-NH2) | < 7.00 | < 7.00 |  |  |
| CC[C@H](C)[C@H](NC(=O)[C@H](C)NC(=O)[C@H](CC(N)=O)NC(=O)[C@H](CCC(N)=O)NC(=O)[C@H](CCC(=O)O)NC(=O)[C@H](C)NC(=O)[C@H](CCCNC(=N)N)NC(=O)[C@H](CCC(=O)O)NC(=O)[C@H](CCCNC(=N)N)NC(=O)[C@H](CCC(N)=O)NC(=O)[C@H](CO)NC(=O)[C@H](CCC(N)=O)NC(=O)[C@@H](NC(=O)[C@H](CCCNC(=N)N)NC(=O)[C@H](C)NC(=O)[C@H](CC(C)C)NC(=O)[C@H](CCC(=O)O)NC(=O)[C@H](CC(C)C)NC(=O)[C@H](CC(C)C)NC(=O)[C@@H](NC(=O)[C@H](CCCNC(=N)N)NC(=O)[C@H](CC(C)C)NC(=O)[C@H](CC(C)C)NC(=O)[C@H](Cc1ccc(O)cc1)NC(=O)[C@@H](NC(=O)[C@@H]1CCCN1C(=O)[C@H](CC(C)C)NC(=O)[C@H](CC(=O)O)NC(=O)[C@@H](NC(=O)[C@H](CO)NC(=O)[C@H](CC(C)C)NC(=O)[C@H](CO)NC(=O)[C@@H]1CCCN1C(=O)[C@H](CC(N)=O)NC(=O)[C@@H](N)CC(=O)O)[C@@H](C)CC)[C@@H](C)O)[C@@H](C)O)[C@@H](C)O)C(=O)N[C@H](C(=O)N[C@@H](Cc1ccccc1)C(=O)N[C@@H](C)C(=O)N[C@@H](CO)C(=O)N[C@H](C(N)=O)C(C)C)[C@@H](C)CC [compound 173] (H-DNPSLSIDLPTYLLRTLLELARTQSQRERAEQNAIIFASV-NH2) | ≤ 6.00 | ≤ 7.00 |  |  |
| CC[C@H](C)[C@H](NC(=O)[C@H](C)NC(=O)[C@H](CC(N)=O)NC(=O)[C@H](CCC(N)=O)NC(=O)[C@H](CCC(=O)O)NC(=O)[C@H](C)NC(=O)[C@H](CCCNC(=N)N)NC(=O)[C@H](CCC(=O)O)NC(=O)[C@H](CCCNC(=N)N)NC(=O)[C@H](CCC(N)=O)NC(=O)[C@H](CO)NC(=O)[C@H](CCC(N)=O)NC(=O)[C@@H](NC(=O)[C@H](CCCNC(=N)N)NC(=O)[C@H](C)NC(=O)[C@H](CC(C)C)NC(=O)[C@H](CCC(=O)O)NC(=O)[C@H](CC(C)C)NC(=O)[C@H](CC(C)C)NC(=O)[C@@H](NC(=O)[C@H](CCCNC(=N)N)NC(=O)[C@H](CC(C)C)NC(=O)[C@H](CC(C)C)NC(=O)[C@H](Cc1ccccc1)NC(=O)[C@H](Cc1ccccc1)NC(=O)[C@@H]1CCCN1C(=O)[C@H](CC(C)C)NC(=O)[C@H](CC(=O)O)NC(=O)[C@@H](NC(=O)[C@H](CO)NC(=O)[C@H](CC(C)C)NC(=O)[C@H](CO)NC(=O)[C@@H]1CCCN1C(=O)[C@H](CC(N)=O)NC(=O)[C@@H](N)CC(=O)O)[C@@H](C)CC)[C@@H](C)O)[C@@H](C)O)C(=O)N[C@H](C(=O)N[C@@H](Cc1ccccc1)C(=O)N[C@@H](C)C(=O)N[C@@H](CO)C(=O)N[C@H](C(N)=O)C(C)C)[C@@H](C)CC [compound 184] (H-DNPSLSIDLPFFLLRTLLELARTQSQRERAEQNAIIFASV-NH2; N-terminus assumed) | 6.31 | 8.43 |  |  |
